Structures are written as SMILES. Read-outs that look alike come from different tables or passages of the source. Marks after values point to notes of the source that are not given here.

Data set [1] deals with Hsp90. As to conditions: Kusuma (2012) and Ma (2015); cited from earlier work.
For data set [2], the system named is neurons. The settings on record: Kusuma (2012); cited from earlier work.
Data set [3] in a line: in vivo. The settings on record: male, C57BL/6, mouse, po, 1000 mg/kg. On the procedure: Blood samples for plasma isolation were collected at 0.25, 0.5, 1, 2, 4, 8, and 24 hours post-dose, using a separate group (n=5/group/time point) of mice for each time point, as summarized in Table 14 below. Plasma samples were analyzed for concentrations of 4a by LC/MS/MS methodology as described below.
4a was extracted from K3EDTA-fortified plasma samples using a protein precipitation method. In a well of a polypropylene microplate (96-well), 20 μL of a 2.5-ng/mL D3-4a (internal standard, IS) solution prepared in acetonitrile/H2O (1:1) was added, followed by addition of 20 μL of plasma sample. The plate was sealed with sealing tape (Phenomenex, AH0-7362) and gently mixed with a vortex-mixer for 1 minute. The solution was pipetted into a well of a polypropylene plate (96-well, 2 mL, Phenomenex, AH0-7194) that contained 500 μL of methanol. The plate was sealed and vortex-mixed for 5 minutes followed by centrifugation at 3000×g for 3 minutes at room temperature. A 300-μL aliquot of the supernatant was transferred to a new well that contained 300 μL of deionized water. After gentle mixing, the plate was sealed and placed in an LC autosampler maintained at 12° C., and a 10-μL aliquot was injected into an LC/MS/MS system for quantitative analysis of 4a.
Liquid chromatographic separation of 4a was achieved by a reversed-phase analytical column with mobile phase solution containing H2O, acetonitrile, and formic acid. The chromatographed analyte was detected by a Waters Xevo TQ-S triple quadrupole mass spectrometer operating in multiple-reaction-monitoring (MRM) mode. Chromatographed peak areas for quality control samples, calibration standards, and study samples were integrated using MassLynx software V4.1 (Waters Corp.).
Pharmacokinetic parameter estimates were obtained from non-compartmental analysis of the mean 4a plasma concentration-time data for each dose group using WinNonlin™ software version 6.3 (Pharsight Corp., Cary, N.C.). […] The time of the last measurable concentration was defined as the time after which 4a concentrations were below the limit of quantitation (BLQ) in the majority of animals for each dose group.

A short description of data set [4]: Systemic exposure to 4a after single oral gavage (suspension) or loose-filled capsule in monkeys (plasma LC/MS/MS, PK). It is filed as in vivo. The settings on record: male, cynomolgus, cynomolgus monkey, oral gavage suspension 30 mg/kg, 0.25 hr, read-out: 4a Plasma Concentration, mean (±SD).
Assay in data set [5]: as above
Type of data set: in vivo, male cynomolgus monkeys. The settings on record: for AUC(0-t): read-out: AUC(0-t), mean (±SD); for Cmax: read-out: Cmax, mean (±SD); for Tmax: read-out: Tmax (median). On the procedure:
Dosing of Material A accounted for the presence of proline on a weight basis. Blood samples for plasma isolation were collected at […], 0.5, 1, 2, 4, 8, 12, and 24 hours post-dose from each monkey.

Setting [6] is: male, cynomolgus, cynomolgus monkey, plasma, oral gavage suspension 30 mg/kg, read-out: 4a Plasma Concentration, mean (±SD).
The mark [7] stands for this setting: male, cynomolgus, cynomolgus monkey, plasma, oral gavage suspension 30 mg/kg.
[8] abbreviates: male, cynomolgus, cynomolgus monkey, plasma, oral, capsule 50 mg, read-out: 4a Plasma Concentration, mean (±SD).
Where [9] appears, read: male, cynomolgus, cynomolgus monkey, plasma, oral, capsule 50 mg, BLQ values included as 1/2 LLOQ (0.200 ng/mL), read-out: 4a Plasma Concentration, mean (±SD).
[10] abbreviates: male, cynomolgus, cynomolgus monkey, plasma, po, 50 mg capsule.

With `CO[C@@H]1[C@@H](O)[C@@H](O)C(Oc2ccc(CCNC(C)=O)c(-c3cccc(F)c3)c2)OC1(C)C` (single isomer, unassigned) [Form 4], the “potency in Hsp70-independent inhibition of Hsp90” value in data set [1] is recorded as “excellent potency”. Moreover, the neuronal protective activity entry in data set [2] was “high neuronal protective activity”.
As usually defined, the AUC(0-t) is the area under the concentration-time curve up to a stated or last time point. For orientation: Cmax means the highest concentration seen after dosing. Broadly, the Tmax is the time at which the peak concentration occurs. As to `CO[C@@H]1[C@@H](O)[C@@H](O)[C@H](Oc2ccc(CCNC(C)=O)c(-c3cccc(F)c3)c2)OC1(C)C` [amorphous 4a, N-(2-(5-(((2R,3R,4S,5R)-3,4-dihydroxy-5-methoxy-6,6-dimethyltetra-hydro-2H-pyran-2-yl)oxy)-3′-fluoro-[1,1′-biphenyl]-2-yl)ethyl)-acetamide], the AUC(0-t) in data set [3] worked out at 2880 ng·h/mL; in data set [5] (setting [7]), 307 ± 96 ng·h/mL; in data set [5] (setting [10]) it was 81.6 ± 105 ng·h/mL. For the same compound, the Cmax in data set [3] worked out at 6760 ng/mL; in data set [5] (setting [7]), 160 ± 78 ng/mL; in data set [5] (setting [10]), 19.7 ± 9.4 ng/mL. Besides, the results for the Tmax in data set [3], in data set [5] (setting [7]) and in data set [5] (setting [10]) were 15 min, 30 min and 15 min, respectively. Also, the results for the concentration at 0.5 h in data set [3], in data set [5] (setting [6]) and in data set [5] (setting [8]) were 3060 ± 1600 ng/mL, 129 ± 92 ng/mL and 12.3 ± 5.5 ng/mL, respectively. In addition, the figures for the concentration at 1 h in data set [3], in data set [5] (setting [6]) and in data set [5] (setting [8]) were 359 ± 140 ng/mL, 128 ± 56 ng/mL and 5.97 ± 0.95 ng/mL, respectively. Besides, the concentration at 2 h amounted to 80.7 ± 116 ng/mL in data set [3], 80.2 ± 26.4 ng/mL in data set [5] (setting [6]) and 1.9 ± 1.89 ng/mL in data set [5] (setting [9]). Also, the concentration at 4 h in data set [3] is 2.28 ± 0.92 ng/mL; in data set [5] (setting [6]), 14.1 ± 5.5 ng/mL; in data set [5] (setting [9]), 0.2 ng/mL. The concentration at 8 h in data set [3] is 4.01 ± 4.34 ng/mL; in data set [5] (setting [6]) it was 1.2 ± 0.45 ng/mL; in data set [5] (setting [9]) it was 0.951 ± 1.3 ng/mL. Also, the concentration at […] in data set [4] stood at 103 ± 71 ng/mL; in data set [5] (male, cynomolgus, cynomolgus monkey, plasma, oral, capsule 50 mg, 0.25 hr, read-out: 4a Plasma Concentration, mean (±SD)), 15.9 ± 12.9 ng/mL. Besides, the “4a Plasma Concentration, mean (±SD)” value was 6.11 ± 9.23^c ng/mL in data set [5] (capsule 50 mg, 24 hr, BLQ values included as 1/2 LLOQ (0.200 ng/mL)); “BLQ^d” in data set [5] (oral gavage suspension 30 mg/kg, 12 hr); “BLQ^d” in data set [5] (oral gavage suspension 30 mg/kg, 24 hr). The concentration at 12 h in data set [5] (male, cynomolgus, cynomolgus monkey, plasma, oral, capsule 50 mg, 12 hr, BLQ values included as 1/2 LLOQ (0.200 ng/mL), read-out: 4a Plasma Concentration, mean (±SD)) was 3.53 ± 5.78 ng/mL. Moreover, in data set [5] (male, cynomolgus, cynomolgus monkey, plasma, oral, loose-filled capsule 50 mg, 24 hours post-dose (secondary peak), read-out: mean (±SD) 4a plasma concentration), the concentration at 24 h turned out to be 6.11 ± 9.23 ng/mL.

The values are drawn from patent publication US11401294B2, “Co-crystal forms of a novobiocin analog and proline” (Reata Pharmaceuticals, Inc., priority 2018, dated 2022).
